Test results published in patent US4401660A, “Ester derivatives of 5-O-mycaminosyl tylonolide and method of using same” (Eli Lilly and Company, priority 1981, dated 1983).
Read-outs that look alike come from different tables or passages of the source.

Columns and labels:
[1] = system: Haemophilus influenzae Holt; test: MIC, standard agar-dilution assay (Table II); type: cell-based; parameters: unit not given here; details: ampicillin-sensitive strain
Experimental: (§1) The MIC's in Table II were determined by standard agar-dilution assays. The MIC's in Table III were obtained using a conventional broth-dilution microtiter test.

[2] = system: Haemophilus influenzae R252; test: MIC, standard agar-dilution assay (Table II); type: cell-based; parameters: unit not given here; details: Haemophilus influenzae R252, ampicillin-resistant strain
Experimental: as §1

[3] = system: Staphylococcus aureus S13E; test: MIC, standard agar-dilution assay (Table II); type: cell-based; parameters: unit not given here
Experimental: as §1

[4] = system: Staphylococcus aureus V41; test: MIC, standard agar-dilution assay (Table II); type: cell-based; parameters: unit not given here; details: Staphylococcus aureus V41, penicillin-resistant strain
Experimental: as §1

[5] = system: Staphylococcus aureus X1.1; test: MIC, standard agar-dilution assay (Table II); type: cell-based; parameters: unit not given here
Experimental: as §1

[6] = system: Staphylococcus aureus X400; test: MIC, standard agar-dilution assay (Table II); type: cell-based; parameters: unit not given here; details: Staphylococcus aureus X400, methicillin-resistant strain
Experimental: as §1

[7] = system: Staphylococcus epidermidis EPI1; test: MIC, standard agar-dilution assay (Table II); type: cell-based; parameters: unit not given here
Experimental: as §1

[8] = system: Staphylococcus epidermidis EPI2; test: MIC, standard agar-dilution assay (Table II); type: cell-based; parameters: unit not given here
Experimental: as §1

[9] = system: Streptococcus Group D 9960; test: MIC, standard agar-dilution assay (Table II); type: cell-based; parameters: unit not given here
Experimental: as §1

[10] = system: Streptococcus Group D X66; test: MIC, standard agar-dilution assay (Table II); type: cell-based; parameters: unit not given here
Experimental: as §1

[11] = system: Streptococcus pneumoniae Park I; test: MIC, standard agar-dilution assay (Table II); type: cell-based; parameters: unit not given here
Experimental: as §1

[12] = system: Streptococcus pyogenes C203; test: MIC, standard agar-dilution assay (Table II); type: cell-based; parameters: unit not given here
Experimental: as §1

[13] = system: Mycoplasma gallisepticum; test: MIC, broth-dilution microtiter test (Table III); type: cell-based; parameters: unit not given here
Experimental: as §1

[14] = system: Mycoplasma hyorhinis; test: MIC, broth-dilution microtiter test (Table III); type: cell-based; parameters: unit not given here
Experimental: as §1

[15] = system: Mycoplasma synoviae; test: MIC, broth-dilution microtiter test (Table III); type: cell-based; parameters: unit not given here
Experimental: as §1

[16] = system: Pasteurella haemolytica 22C; test: MIC, broth-dilution microtiter test (Table III); type: cell-based; parameters: unit not given here
Experimental: as §1

[17] = system: Pasteurella haemolytica 23C; test: MIC, broth-dilution microtiter test (Table III); type: cell-based; parameters: unit not given here
Experimental: as §1

[18] = system: Pasteurella haemolytica 41D; test: MIC, broth-dilution microtiter test (Table III); type: cell-based; parameters: unit not given here
Experimental: as §1

[19] = system: Pasteurella multocida 17E; test: MIC, broth-dilution microtiter test (Table III); type: cell-based; parameters: unit not given here; details: bovine isolate
Experimental: as §1

[20] = system: Pasteurella multocida 22A; test: MIC, broth-dilution microtiter test (Table III); type: cell-based; parameters: unit not given here
Experimental: as §1

[21] = system: Pasteurella multocida 40G; test: MIC, broth-dilution microtiter test (Table III); type: cell-based; parameters: unit not given here
Experimental: as §1

[22] = system: Pasteurella multocida 60A; test: MIC, broth-dilution microtiter test (Table III); type: cell-based; parameters: unit not given here; details: avian isolate
Experimental: as §1

[23] = system: Pasteurella multocida 68C; test: MIC, broth-dilution microtiter test (Table III); type: cell-based; parameters: unit not given here
Experimental: as §1

[24] = system: Staphylococcus aureus; test: MIC, broth-dilution microtiter test (Table III); type: cell-based; parameters: unit not given here
Experimental: as §1

[25] = system: Streptococcus sp. 80; test: MIC, broth-dilution microtiter test (Table III); type: cell-based; parameters: unit not given here
Experimental: as §1

[26] = system: Streptococcus pyogenes C203; test: ED50 in mice with experimental infections (Table IV); type: in vivo; details: Streptococcus pyogenes, doses given 1 and 4 hours postinfection
Summary of the method: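 Read-out is ED50, the mg/kg dose protecting half of infected mice; values refer to each of two doses, given 1 and 4 hours after infection.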

[27] = system: Pasteurella multocida; test: Treatment of Pasteurella infections in chicks (Table V); type: in vivo, one-day-old chicks; details: Pasteurella multocida, sc, 4 h; 30 mg/kg by subcutaneous injection one and four hours post challenge; read-out: Deaths in Treated Chicks/Number Treated (converted)
Summary of the method: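 Dosing was 30 mg/kg by subcutaneous injection, one and four hours after challenge. Day-old chicks received 0.1 ml of a 10^-3 dilution of a 20-hour tryptose broth culture of avian P. multocida subcutaneously. Nonmedicated infected chicks served as controls, ten per group.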

[28] = C203, oral, read-out: ED50, Oral
[29] = C203, sc, subcutaneous, read-out: ED50, Subcutaneous

Compound	minimal inhibitory concentration (MIC) [1]	minimal inhibitory concentration (MIC) [2]	minimal inhibitory concentration (MIC) [3]	minimal inhibitory concentration (MIC) [4]	minimal inhibitory concentration (MIC) [5]	minimal inhibitory concentration (MIC) [6]	minimal inhibitory concentration (MIC) [7]	minimal inhibitory concentration (MIC) [8]	minimal inhibitory concentration (MIC) [9]	minimal inhibitory concentration (MIC) [10]	minimal inhibitory concentration (MIC) [11]	minimal inhibitory concentration (MIC) [12]	minimal inhibitory concentration (MIC) [13]	minimal inhibitory concentration (MIC) [14]	minimal inhibitory concentration (MIC) [15]	minimal inhibitory concentration (MIC) [16]	minimal inhibitory concentration (MIC) [17]	minimal inhibitory concentration (MIC) [18]	minimal inhibitory concentration (MIC) [19]	minimal inhibitory concentration (MIC) [20]	further results
CCC1OC(=O)CC(O)C(C)C(OC2OC(C)C(OC(C)=O)C(N(C)C)C2OC(C)=O)C(CC=O)CC(C)C(=O)C=CC(C)=CC1COC(=O)Cc1ccccc1 (stereo not shown) [Compound 27, 2',4'-Di-O-acetyl-23-O-phenylacetyl-OMT]	1	1	0.25	0.25	0.25	0.25	0.25	0.25	0.125	0.125	0.03	0.06	0.05	0.097	0.05	3.12	3.12	3.12	1.56	3.12	minimal inhibitory concentration (MIC) [21]: 3.12; minimal inhibitory concentration (MIC) [22]: 0.78; minimal inhibitory concentration (MIC) [23]: 1.56; minimal inhibitory concentration (MIC) [24]: 0.097; minimal inhibitory concentration (MIC) [25]: 0.05; ED50 [26, 28]: 159 mg/kg; ED50 [26, 29]: > 30 mg/kg; mortality at 30 mg/kg [27]: 90%
CCC(=O)OCC1C=C(C)C=CC(=O)C(C)CC(CC=O)C(OC2OC(C)C(O)C(N(C)C)C2O)C(C)C(O)CC(=O)OC1CC (stereo not shown) [Compound 14, 23-O-Propionyl-OMT]	1	4	0.25	0.25	0.25	0.25	0.125	0.125	0.25	0.25	0.125	0.125	0.05	6.25	0.05	6.25	3.12	6.25	1.56	3.12	minimal inhibitory concentration (MIC) [21]: 1.56; minimal inhibitory concentration (MIC) [22]: 0.78; minimal inhibitory concentration (MIC) [23]: 1.56; minimal inhibitory concentration (MIC) [24]: 0.39; minimal inhibitory concentration (MIC) [25]: 0.195; ED50 [26, 28]: 106 mg/kg; ED50 [26, 29]: 6 mg/kg; mortality at 30 mg/kg [27]: 0%
CCC1OC(=O)CC(O)C(C)C(OC2OC(C)C(O)C(N(C)C)C2OC(C)=O)C(CC=O)CC(C)C(=O)C=CC(C)=CC1COC(C)=O (stereo not shown) [Compound 9]	1	4	0.25	0.5	0.45	0.5	0.25	0.25	0.5	0.5	0.125	0.25	< 0.78	1.56	0.097	3.12	3.12	3.12	1.56	6.25	minimal inhibitory concentration (MIC) [21]: 1.56; minimal inhibitory concentration (MIC) [22]: 1.56; minimal inhibitory concentration (MIC) [23]: 3.12; minimal inhibitory concentration (MIC) [24]: 0.78; minimal inhibitory concentration (MIC) [25]: 0.195; ED50 [26, 28]: 137 mg/kg; ED50 [26, 29]: 6.4 mg/kg; mortality at 30 mg/kg [27]: 0%
CCC1OC(=O)CC(O)C(C)C(OC2OC(C)C(O)C(N(C)C)C2O)C(CC=O)CC(C)C(=O)C=CC(C)=CC1COC(=O)OC (stereo not shown) [Compound 74]	1	2	0.25	0.25	0.25	0.5	0.25	0.25	0.25	0.5	0.03	0.25	< 0.048	0.78	0.195	6.25	3.12	1.56	1.56	25	minimal inhibitory concentration (MIC) [21]: 12.5; minimal inhibitory concentration (MIC) [22]: 1.56; minimal inhibitory concentration (MIC) [23]: 12.5; minimal inhibitory concentration (MIC) [24]: 1.56; minimal inhibitory concentration (MIC) [25]: 0.39; ED50 [26, 28]: > 100 mg/kg; ED50 [26, 29]: 3 mg/kg; mortality at 30 mg/kg [27]: 0%
